Source: patent US20050277575A1, “Therapeutic compositions and methods for treating diseases that involve angiogenesis” (priority 2004, published 2005)

Tested on: Human cerebral endothelial cells (HCEC)
Assay: Capillary tube formation in Matrigel, S100A4 induced angiogenesis
Assay type: cell-based
Conditions: primary HCEC grown in Matrigel
Description: Human cerebral endothelial cells (HCEC) were isolated using previously described protocols (Stanimirovic, D., P. Morley, et al. (1996). “Angiotensin II-induced fluid phase endocytosis in human cerebromicrovascular endothelial cells is regulated by the inositol-phosphate signaling pathway.” J Cell Physiol 169(3): 455-67.). Purity of HCEC cultures generated by these procedures was routinely assessed by the immunocytochemical staining for Factor VIII-related antigen and the lack of staining for smooth muscle β-actin, and is estimated to be >95%. The morphological, phenotypic, biochemical and functional characteristics of these HCEC cultures have been described in detail previously (Muruganandam, A., L. M Herx, et al. (1997). “Development of immortalized human cerebromicrovascular endothelial cell line as an in vitro model of the human blood-brain barrier.” Faseb J 11(13): 1187-97).
HCEC were seeded (8×10^4 cells) on a semi-solid basement membrane matrix, Matrigel™ (Collaborative Biomedical Products, Bedford, Mass.)-coated 24-well plates and exposed to serum-free media containing various treatments. […] Confocal apertures for each recorded wavelength were adjusted to a full width half maximum of 20 μm. […] Eight to 32 individual optical sections were collected and the average was calculated. […]

## S100A4: recombinant human S100A4 protein cloned from human placenta total RNA, Ca-binding protein of S100 family
  concentration of S100A4 from which angiogenesis is induced: ≥ 10 nM
